From article PMC8799717, “Pharmacological targeting PIKfyve and tubulin as an effective treatment strategy for double-hit lymphoma” (Cell Death Discovery, 2022)

What was measured:
Experiment in all cases: biochemical
Set-up in all cases: KINOMEscan active-site-directed competition binding panel, 468 kinases, percent of DMSO control at 1 uM
Conditions in all cases: KINOMEscan binding, percent of DMSO control; read-out: Ctrl%
[1] = biological target: T1, ABL1(F317I)-nonphosphorylated (Homo sapiens, UniProt P00519, F317I)
T1 construct: nonphosphorylated

[2] = biological target: T2, ABL1(H396P)-phosphorylated (Homo sapiens, UniProt P00519, H396P)
T2 construct: phosphorylated

[3] = biological target: AKT1 (Homo sapiens, UniProt P31749)
[4] = biological target: BTK (Homo sapiens, UniProt Q06187)
[5] = biological target: CDK7 (Homo sapiens, UniProt P50613)
[6] = biological target: CSNK1A1 (Homo sapiens, UniProt P48729)
[7] = biological target: T3, CTK (Homo sapiens, UniProt P42679)
T3 construct: gene MATK

[8] = biological target: FES (Homo sapiens, UniProt P07332)
[9] = biological target: FLT3(D835Y) (Homo sapiens, UniProt P36888, D835Y)
[10] = biological target: FLT3(N841I) (Homo sapiens, UniProt P36888, N841I)
[11] = biological target: FLT4 (Homo sapiens, UniProt P35916)
[12] = biological target: FYN (Homo sapiens, UniProt P06241)
[13] = biological target: HIPK1 (Homo sapiens, UniProt Q86Z02)
[14] = biological target: MAP3K15 (Homo sapiens, UniProt Q6ZN16)
[15] = biological target: T4, MEK6 (Homo sapiens, UniProt P52564)
T4 construct: gene MAP2K6

[16] = biological target: T5, MINK (Homo sapiens, UniProt Q8N4C8)
T5 construct: gene MINK1

[17] = biological target: MKNK1 (Homo sapiens, UniProt Q9BUB5)
[18] = biological target: NLK (Homo sapiens, UniProt Q9UBE8)
[19] = biological target: T6, RSK1(Kin.Dom.2-C-terminal) (Homo sapiens, UniProt Q15418)
T6 construct: gene RPS6KA1; Kin.Dom.2-C-terminal

[20] = biological target: T7, SgK110 (Homo sapiens, UniProt P0C264)
T7 construct: gene SBK3

[21] = biological target: TGFBR1 (Homo sapiens, UniProt P36897)
[22] = biological target: TGFBR2 (Homo sapiens, UniProt P37173)
[23] = biological target: TNNI3K (Homo sapiens, UniProt Q59H18)
[24] = biological target: T8, TYK2(JH1domain-catalytic) (Homo sapiens, UniProt P29597)
T8 construct: JH1domain-catalytic

T3 sequence (P42679 whole entry): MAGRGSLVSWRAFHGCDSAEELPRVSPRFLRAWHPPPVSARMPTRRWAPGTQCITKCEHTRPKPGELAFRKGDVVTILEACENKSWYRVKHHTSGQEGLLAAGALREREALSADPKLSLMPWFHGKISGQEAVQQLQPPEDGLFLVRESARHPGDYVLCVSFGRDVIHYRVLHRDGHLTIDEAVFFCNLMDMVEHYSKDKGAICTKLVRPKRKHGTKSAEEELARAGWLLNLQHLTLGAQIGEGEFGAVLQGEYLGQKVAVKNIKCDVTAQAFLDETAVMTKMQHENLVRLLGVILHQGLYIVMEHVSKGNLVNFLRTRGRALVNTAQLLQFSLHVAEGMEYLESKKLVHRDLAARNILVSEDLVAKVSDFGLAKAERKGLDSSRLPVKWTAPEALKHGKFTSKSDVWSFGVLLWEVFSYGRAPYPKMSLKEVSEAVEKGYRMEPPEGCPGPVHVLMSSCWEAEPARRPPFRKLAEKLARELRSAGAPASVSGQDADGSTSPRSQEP
FYN, sequence (P06241 whole entry): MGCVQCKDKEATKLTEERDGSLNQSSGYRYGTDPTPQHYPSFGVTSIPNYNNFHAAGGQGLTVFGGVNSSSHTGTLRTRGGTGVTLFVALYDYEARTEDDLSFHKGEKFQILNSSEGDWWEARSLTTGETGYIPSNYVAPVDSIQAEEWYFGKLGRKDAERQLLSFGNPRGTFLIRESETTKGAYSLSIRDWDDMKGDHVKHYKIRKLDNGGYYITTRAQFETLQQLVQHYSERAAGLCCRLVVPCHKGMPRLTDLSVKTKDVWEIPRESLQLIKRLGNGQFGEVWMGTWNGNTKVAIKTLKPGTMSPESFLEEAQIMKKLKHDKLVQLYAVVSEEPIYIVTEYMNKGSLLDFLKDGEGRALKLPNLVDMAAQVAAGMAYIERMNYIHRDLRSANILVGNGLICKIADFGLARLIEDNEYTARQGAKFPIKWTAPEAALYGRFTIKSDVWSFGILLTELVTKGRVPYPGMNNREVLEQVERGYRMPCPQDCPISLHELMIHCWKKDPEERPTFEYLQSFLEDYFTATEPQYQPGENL
CSNK1A1, sequence (P48729 whole entry): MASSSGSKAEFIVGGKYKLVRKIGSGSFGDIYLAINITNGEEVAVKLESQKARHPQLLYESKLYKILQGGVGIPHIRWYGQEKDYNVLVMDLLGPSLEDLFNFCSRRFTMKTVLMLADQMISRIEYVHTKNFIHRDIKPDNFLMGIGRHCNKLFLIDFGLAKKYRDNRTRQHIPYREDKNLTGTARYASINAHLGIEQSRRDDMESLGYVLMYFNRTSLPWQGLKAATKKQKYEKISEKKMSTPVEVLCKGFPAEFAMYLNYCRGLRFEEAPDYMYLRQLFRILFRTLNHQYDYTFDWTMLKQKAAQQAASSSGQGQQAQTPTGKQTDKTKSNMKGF
T5 sequence (Q8N4C8 whole entry): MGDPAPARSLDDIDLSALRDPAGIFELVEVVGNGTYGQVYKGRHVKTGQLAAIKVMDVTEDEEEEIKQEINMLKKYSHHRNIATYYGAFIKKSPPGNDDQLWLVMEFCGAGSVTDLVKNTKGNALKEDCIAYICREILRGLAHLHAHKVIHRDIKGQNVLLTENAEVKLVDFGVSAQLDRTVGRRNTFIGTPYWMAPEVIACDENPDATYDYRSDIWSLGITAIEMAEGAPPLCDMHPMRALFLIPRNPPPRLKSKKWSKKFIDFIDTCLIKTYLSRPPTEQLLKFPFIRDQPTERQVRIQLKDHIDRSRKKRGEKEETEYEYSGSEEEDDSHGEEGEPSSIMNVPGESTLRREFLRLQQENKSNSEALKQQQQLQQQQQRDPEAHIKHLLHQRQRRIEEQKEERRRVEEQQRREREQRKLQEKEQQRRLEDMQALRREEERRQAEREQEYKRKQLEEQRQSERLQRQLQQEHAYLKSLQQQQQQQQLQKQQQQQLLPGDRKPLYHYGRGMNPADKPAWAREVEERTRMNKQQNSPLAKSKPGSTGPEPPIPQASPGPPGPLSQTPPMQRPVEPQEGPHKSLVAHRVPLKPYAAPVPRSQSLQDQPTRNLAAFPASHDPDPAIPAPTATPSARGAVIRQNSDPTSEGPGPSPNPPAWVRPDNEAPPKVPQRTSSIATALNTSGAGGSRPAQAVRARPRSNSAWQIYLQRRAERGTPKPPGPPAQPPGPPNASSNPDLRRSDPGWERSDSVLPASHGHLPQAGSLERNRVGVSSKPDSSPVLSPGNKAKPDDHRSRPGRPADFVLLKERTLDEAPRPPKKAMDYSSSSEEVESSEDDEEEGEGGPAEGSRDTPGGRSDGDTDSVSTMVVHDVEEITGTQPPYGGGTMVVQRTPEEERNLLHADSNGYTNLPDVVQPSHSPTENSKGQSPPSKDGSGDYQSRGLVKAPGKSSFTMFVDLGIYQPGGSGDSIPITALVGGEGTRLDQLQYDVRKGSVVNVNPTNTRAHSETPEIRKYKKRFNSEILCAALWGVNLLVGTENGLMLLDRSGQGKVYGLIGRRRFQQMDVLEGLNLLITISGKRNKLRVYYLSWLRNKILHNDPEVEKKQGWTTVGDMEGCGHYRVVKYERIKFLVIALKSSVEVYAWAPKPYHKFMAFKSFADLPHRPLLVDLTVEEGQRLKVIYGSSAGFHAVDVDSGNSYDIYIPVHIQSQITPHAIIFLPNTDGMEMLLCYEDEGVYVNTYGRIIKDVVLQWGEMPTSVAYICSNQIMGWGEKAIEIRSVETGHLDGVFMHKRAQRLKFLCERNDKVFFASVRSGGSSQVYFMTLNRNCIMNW
CDK7, sequence (P50613 whole entry): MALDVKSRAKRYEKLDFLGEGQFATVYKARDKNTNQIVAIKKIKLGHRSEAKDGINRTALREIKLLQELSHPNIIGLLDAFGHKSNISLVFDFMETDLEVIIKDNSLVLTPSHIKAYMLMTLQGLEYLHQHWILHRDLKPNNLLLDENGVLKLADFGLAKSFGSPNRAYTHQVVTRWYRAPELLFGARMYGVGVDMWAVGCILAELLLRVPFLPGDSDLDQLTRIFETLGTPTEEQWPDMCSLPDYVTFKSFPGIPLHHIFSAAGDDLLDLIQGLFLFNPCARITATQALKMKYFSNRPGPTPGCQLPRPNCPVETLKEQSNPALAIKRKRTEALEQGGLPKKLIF
T4 sequence (P52564 whole entry): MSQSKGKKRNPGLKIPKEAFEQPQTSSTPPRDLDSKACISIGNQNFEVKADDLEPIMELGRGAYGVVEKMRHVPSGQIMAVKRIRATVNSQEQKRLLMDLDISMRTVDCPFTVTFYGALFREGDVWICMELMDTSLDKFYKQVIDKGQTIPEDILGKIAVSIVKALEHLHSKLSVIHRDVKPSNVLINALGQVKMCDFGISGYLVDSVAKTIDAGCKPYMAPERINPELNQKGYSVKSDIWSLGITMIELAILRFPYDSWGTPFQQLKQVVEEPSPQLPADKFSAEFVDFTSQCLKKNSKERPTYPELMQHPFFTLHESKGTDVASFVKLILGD
TNNI3K, sequence (Q59H18 whole entry): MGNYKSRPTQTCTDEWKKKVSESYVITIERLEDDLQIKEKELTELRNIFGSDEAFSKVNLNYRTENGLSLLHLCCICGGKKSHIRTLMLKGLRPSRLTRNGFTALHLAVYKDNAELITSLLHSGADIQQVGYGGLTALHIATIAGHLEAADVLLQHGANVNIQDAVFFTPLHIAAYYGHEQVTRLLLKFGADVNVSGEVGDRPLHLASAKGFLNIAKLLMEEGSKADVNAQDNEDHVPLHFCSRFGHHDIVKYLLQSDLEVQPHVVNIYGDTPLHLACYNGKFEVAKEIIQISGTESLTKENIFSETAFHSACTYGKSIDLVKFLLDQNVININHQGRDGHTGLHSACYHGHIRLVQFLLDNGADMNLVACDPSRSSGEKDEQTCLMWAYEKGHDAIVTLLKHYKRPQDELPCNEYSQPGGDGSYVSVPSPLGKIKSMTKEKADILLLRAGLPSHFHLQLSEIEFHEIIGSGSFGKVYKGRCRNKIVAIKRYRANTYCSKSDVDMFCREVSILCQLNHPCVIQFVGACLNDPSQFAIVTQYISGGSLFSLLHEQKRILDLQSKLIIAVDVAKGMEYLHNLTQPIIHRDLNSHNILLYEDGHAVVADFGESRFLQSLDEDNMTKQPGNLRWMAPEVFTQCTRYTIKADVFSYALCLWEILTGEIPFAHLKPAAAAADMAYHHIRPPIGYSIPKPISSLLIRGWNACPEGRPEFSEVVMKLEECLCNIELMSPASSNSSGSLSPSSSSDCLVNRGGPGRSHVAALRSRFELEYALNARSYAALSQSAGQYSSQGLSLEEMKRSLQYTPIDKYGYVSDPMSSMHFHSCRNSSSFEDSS
TGFBR2, sequence (P37173 whole entry): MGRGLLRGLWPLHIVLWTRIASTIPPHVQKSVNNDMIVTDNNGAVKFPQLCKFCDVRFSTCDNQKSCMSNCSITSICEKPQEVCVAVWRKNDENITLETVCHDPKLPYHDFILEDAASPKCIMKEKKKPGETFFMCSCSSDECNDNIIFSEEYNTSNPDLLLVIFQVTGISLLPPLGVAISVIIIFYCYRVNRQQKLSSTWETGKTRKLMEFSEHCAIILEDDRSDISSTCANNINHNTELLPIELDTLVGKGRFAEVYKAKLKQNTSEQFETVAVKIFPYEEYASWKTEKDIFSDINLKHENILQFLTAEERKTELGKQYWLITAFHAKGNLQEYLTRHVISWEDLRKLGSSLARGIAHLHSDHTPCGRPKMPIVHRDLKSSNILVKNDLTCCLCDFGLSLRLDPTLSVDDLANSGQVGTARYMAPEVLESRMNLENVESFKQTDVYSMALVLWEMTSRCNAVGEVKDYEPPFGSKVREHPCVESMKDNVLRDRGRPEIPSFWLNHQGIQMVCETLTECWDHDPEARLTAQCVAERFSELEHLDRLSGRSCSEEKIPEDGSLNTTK

Cc1ccc(NC(=O)c2cccc(C(F)(F)F)c2)cc1Nc1cc(-c2cccnc2)nc2[nH]ccc12 [HZX-02-059]
remaining binding at 1 µM [1]: 40%
remaining binding at 1 µM [2]: 84%
remaining binding at 1 µM [3]: 99%
remaining binding at 1 µM [4]: 100%
remaining binding at 1 µM [5]: 69%
remaining binding at 1 µM [6]: 77%
remaining binding at 1 µM [7]: 56%
remaining binding at 1 µM [8]: 100%
remaining binding at 1 µM [9]: 100%
remaining binding at 1 µM [10]: 88%
remaining binding at 1 µM [11]: 94%
remaining binding at 1 µM [12]: 85%
remaining binding at 1 µM [13]: 74%
remaining binding at 1 µM [14]: 53%
remaining binding at 1 µM [15]: 88%
remaining binding at 1 µM [16]: 91%
remaining binding at 1 µM [17]: 100%
remaining binding at 1 µM [18]: 100%
remaining binding at 1 µM [19]: 100%
remaining binding at 1 µM [20]: 100%
remaining binding at 1 µM [21]: 76%
remaining binding at 1 µM [22]: 90%
remaining binding at 1 µM [23]: 6.3%
remaining binding at 1 µM [24]: 100%
